Source: PubChem BioAssay AID330 (DTP/NCI, 2004)
Values joined by “and” are separate entries in the source; they are usually repeats but may differ in a detail not shown here. Equal values may be shown once. Toxic doses and inconclusive results are not listed. Rule for the calls: active = survival T/C of 150% or more; inactive = T/C below 125% in these data.

Tested on: P388 leukemia ip, CD2F1 mice, survival T/C
Experiment: NCI In Vivo Anticancer Drug Screen. Data for tumor model P388 Leukemia (intraperitoneal) in CD2F1 (CDF1) mice
Conditions: endpoint: median survival time, higher = longer survival
In short: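 Mice carrying the transplanted tumor received test compound or vehicle. Survival was recorded in each group, and the value is the treated-group measurement divided by that of the vehicle-treated control group.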

[1] = dose: 100.0 mg/kg/injection, schedule: Q01DX005 (ip), vehicle: saline with Tween-80
[2] = dose: 200.0 mg/kg/injection, schedule: Q01DX005 (ip), vehicle: saline with Tween-80
[3] = dose: 50.0 mg/kg/injection, schedule: Q01DX005 (ip), vehicle: saline with Tween-80

Measured: T/C

N#CC(c1ccccc1)C(c1ccccc1)c1cccc2ccccc12 (stereo not drawn)
inactive: dose: 6.25 mg/kg/injection, schedule: Q01DX009 (ip), vehicle: suspension in saline 98 % of control | dose: 12.5 mg/kg/injection, schedule: Q01DX009 (ip), vehicle: suspension in saline 97 % of control | dose: 25.0 mg/kg/injection, schedule: Q01DX009 (ip), vehicle: suspension in saline 97 % of control | dose: 50.0 mg/kg/injection, schedule: Q01DX009 (ip), vehicle: suspension in saline 97 % of control | dose: 100.0 mg/kg/injection, schedule: Q04DX002 (ip), vehicle: saline with Tween-80 104 % of control | dose: 200.0 mg/kg/injection, schedule: Q04DX002 (ip), vehicle: saline with Tween-80 101 % of control | dose: 400.0 mg/kg/injection, schedule: Q04DX002 (ip), vehicle: saline with Tween-80 107 % of control

O=C(O)[C@@H]1[C@H](C(=O)O)[C@H](C(=O)O)C[C@@H]1C(=O)O
inactive: dose: 100.0 mg/kg/injection, schedule: Q01DX009 (ip), vehicle: saline 108 % of control | dose: 200.0 mg/kg/injection, schedule: Q01DX009 (ip), vehicle: saline 105 % of control

CCc1ccc2c(c1)C(=O)c1c(c(-c3ccccc3)c3ccccc3c1-c1ccccc1)C2=O
inactive: dose: 1.5 mg/kg/injection, schedule: Q01DX005 (ip), vehicle: saline with Tween-80 98 % of control | dose: 3.0 mg/kg/injection, schedule: Q01DX005 (ip), vehicle: saline with Tween-80 95 % of control | dose: 6.0 mg/kg/injection, schedule: Q01DX005 (ip), vehicle: saline with Tween-80 90 % of control | [1] 92 % of control | [2] 92 % of control

c1cc2cc(-c3ccc4cc(C5=NCCN5)[nH]c4c3)[nH]c2cc1C1=NCCN1
inactive: dose: 25.0 mg/kg/injection, schedule: Q04DX003 (ip), vehicle: saline 108 % of control | dose: 50.0 mg/kg/injection, schedule: Q04DX003 (ip), vehicle: saline 116 % of control
active: dose: 200.0 mg/kg/injection, schedule: Q04DX003 (ip), vehicle: saline 184 % of control

O=C1CC(C(=O)N2Cc3cc4ccccc4nc3C2)CO1 (stereo not drawn)
inactive: dose: 3.13 mg/kg/injection, schedule: Q01DX009 (ip), vehicle: saline with Tween-80 100 % of control and 98 % of control | dose: 6.25 mg/kg/injection, schedule: Q01DX009 (ip), vehicle: saline with Tween-80 99 % of control and 100 % of control and 115 % of control | dose: 12.5 mg/kg/injection, schedule: Q01DX009 (ip), vehicle: saline with Tween-80 106 % of control and 124 % of control and 98 % of control | dose: 25.0 mg/kg/injection, schedule: Q01DX009 (ip), vehicle: saline with Tween-80 100 % of control (2×) and 108 % of control | dose: 50.0 mg/kg/injection, schedule: Q01DX009 (ip), vehicle: saline with Tween-80 100 % of control

COC(=O)C1(CC(=O)c2ccc3ccccc3c2)NC(=S)NC(=O)C1C#N (stereo not drawn)
inactive: dose: 60.0 mg/kg/injection, schedule: Q01DX005 (ip), vehicle: saline with Tween-80 95 % of control | dose: 120.0 mg/kg/injection, schedule: Q01DX005 (ip), vehicle: saline with Tween-80 95 % of control | dose: 240.0 mg/kg/injection, schedule: Q01DX005 (ip), vehicle: saline with Tween-80 91 % of control

O=C(CCCCC(=O)Nc1ccc2c(=O)c3ccccc3[nH]c2c1)Nc1ccc2c(=O)c3ccccc3[nH]c2c1
inactive: [3] 99 % of control | [1] 104 % of control | [2] 104 % of control

CCCCCCCCCCNC1CC(OC2CC(O)(C(C)=O)Cc3c(O)c4c(c(O)c32)C(=O)c2c(OC)cccc2C4=O)OC(C)C1O (stereo not drawn)
inactive: dose: 4.7 mg/kg/injection, schedule: Q04DX003 (ip), vehicle: water 101 % of control | dose: 9.4 mg/kg/injection, schedule: Q04DX003 (ip), vehicle: water 97 % of control | dose: 18.8 mg/kg/injection, schedule: Q04DX003 (ip), vehicle: water 106 % of control | dose: 37.5 mg/kg/injection, schedule: Q04DX003 (ip), vehicle: water 92 % of control

CCC1C(=O)C=C(c2ccccc2)CC1c1ccccc1 (stereo not drawn)
inactive: [3] 111 % of control | [1] 102 % of control | [2] 93 % of control

CCCCCCCCCC[N+]1(CC)CCCCC1
inactive: dose: 3.12 mg/kg/injection, schedule: Q01DX009 (ip), vehicle: saline 119 % of control | dose: 6.25 mg/kg/injection, schedule: Q01DX009 (ip), vehicle: saline 121 % of control | dose: 12.5 mg/kg/injection, schedule: Q01DX009 (ip), vehicle: saline 105 % of control

Cc1ccc(-c2cn3ccsc3n2)cc1
inactive: dose: 100.0 mg/kg/injection, schedule: Q01DX001 (ip), vehicle: Klucel (hydroxypropylcellulose) (HPC) 95 % of control | dose: 200.0 mg/kg/injection, schedule: Q01DX001 (ip), vehicle: Klucel (hydroxypropylcellulose) (HPC) 97 % of control

CCN(/C=N/N(C)S(C)(=O)=O)c1ccccc1
inactive: dose: 50.0 mg/kg/injection, schedule: Q01DX005 (ip), vehicle: Klucel (hydroxypropylcellulose) (HPC) 104 % of control | dose: 100.0 mg/kg/injection, schedule: Q01DX005 (ip), vehicle: Klucel (hydroxypropylcellulose) (HPC) 116 % of control | dose: 200.0 mg/kg/injection, schedule: Q01DX005 (ip), vehicle: Klucel (hydroxypropylcellulose) (HPC) 118 % of control
